Where two headings read alike, the source gives them in different places.
Experiments:
Format in all cases: in vivo
Culex spp. = assay: experimental hut field trial of spatial repellence, Culex; details: single compound, 1 ml in open vial in MM-X trap
Description: (§1) To test the effects of repellent compounds or compositions disclosed herein on mosquitoes in a controlled environment resembling actual living quarters and conditions, field trials with standardized experimental huts were conducted at Kainji Dam in North Central Nigeria.
(§2) Six such huts were built in a straight line, and the distance between huts was 11 meters. These huts follow a traditional square design, the walls are built with concrete blocks that are subsequently plastered with cement, each wall has a window. The ceiling is plywood and the roof is thatched with eaves that are open, thereby allowing free flow of air into and out of the hut, and thus entry and exit of mosquitoes. There is a door for entry and exit. Two opposing sides of each hut have window exit traps and screened verandas to capture mosquitoes leaving via the windows or eaves. Each hut is raised off the ground on a concrete platform and surrounded by a moat filled with water in order to prevent ants from entering. Each hut is fitted with a mattress and an untreated bed net for sleepers. These huts are similar in design and concept to those used previously elsewhere for studying mosquito behavior and measuring the efficacy of various mosquito control products or intervention methods in Tanzania and Gambia. For design parameters refer to WHOPES 2005. The huts are adjacent to a tributary of the River Niger at a distance of 10 km from the Kainji Dam site and face rice fields known to harbor permanent mosquito breeding sites. The mosquitoes endemic to this area of Nigeria are highly endophillic, that is, they rest mainly indoors.
(§3) Human volunteers that participated as sleepers in this field trial were provided with anti-malarial chemical prophylaxis on a weekly basis, and the protocols used herein were reviewed and approved by the Research Ethics Review Committee of the Nigerian Institute of Medical Research. Six male adult volunteers, aged between 25 and 35 years old, were recruited to sleep in the huts described above. Sleepers were allocated to huts randomly for each series of trials, and this randomization process occurred nightly. The volunteers entered the huts by 21:00 each night and remained inside the huts until 06:30 the following morning. Each morning, the windows were closed and the exit traps blocked with a piece of cloth to prevent mosquitoes that entered from exiting. The traps were then put in a freezer at −20° C. to kill all the mosquitoes before being emptied for identification. By means of a sucking aspirator the verandas and rooms were visually searched for live mosquitoes and any insects found were collected in labelled cups. A 10-minute search was conducted for each hut (room and veranda traps). The exit traps were emptied into a labelled cup and all the mosquitoes placed in the freezer at −20° C. for about 30 minutes before morphological identification.
(§4) The Mosquito Magnet trap Model-X (MM-X trap made by the firm formerly known as American Biophysics (ABC), USA) is a 12V battery operated counter-flow trap that was used as the repellent dispersing device to evaluate the efficacy of repellent compounds or compositions disclosed herein. Four compounds, carvacrol, cumin alcohol, ethyl cinnamate, and butyl cinnamate, were evaluated in comparison to DEET as a nonproprietary conventional repellent in a first experiment. The chemical compounds were provided in liquid form: carvacrol (98%), butyl cinnamate (98%), ethyl cinnamate (98%), cumin alcohol (97%) and DEET (97%). […]

Anopheles gambiae s.l. = assay: experimental hut field trial of spatial repellence, Anopheles; details: single compound, 1 ml in open vial in MM-X trap
Description: as §1, §2, §3, §4

[1] = tested on: Anopheles gambiae (Giles) ss strain 16CSS female mosquitoes; assay: warm body repellence assay (mosquito landings); details: for repellent activity in the warm body assay (in words): candidate compounds, initially 1.0-5.0 μg/cm^2 (about 5-31.5 nmole/cm^2)
Description: To test the behavior of female mosquitoes to an essential oil containing OBP binding components, a previously described repellence assay [Kröber et al. (2010). An In Vitro Assay for Testing Mosquito Repellents Employing a Warm Body and Carbon Dioxide as a Behavioral Activator. Journal of the American Mosquito Control Association 26(4) 381-386] was conducted that measures the number of mosquito landings on a warm surface onto which an essential oil containing at least one candidate compound was applied.
To conduct a repellency assay, a selected essential oil or ethanol negative control was applied to a warm body at a dose of about 3.8 μg/cm^2 and allowed to dry for 40 seconds in order to allow evaporation of the solvent before introduction into the test cage with mosquitoes. As positive control for repellence, DEET dissolved in ethanol was applied to the warm body at the same dose. The treated warm body in conjunction with a pulse of carbon dioxide was introduced into the test cage containing fifty Anopheles gambiae (Giles) ss strain 16CSS female mosquitoes that were 4-11 days old and the number of mosquito landings on the warm body occurring within a 2-minute period was counted. Each candidate compound was tested in five different cages (i.e., 250 female mosquitoes) in a randomized design, and the ethanol control and up to four candidate compounds were tested in each cage. Raw data on numbers of landings by mosquitoes were analyzed using a linear mixed model accounting for treatment, experimental day, the individual cage, the number of females per cage and the level of the carbon dioxide pulse in ppm using R (R Development Core Team, 2010) and the packages LME4 (Bates and Maechler, Ime4: Linear mixed-effects models using {S4} classes.{R} package version 0.999375-32, 2009) and NLME (Pinheiro et al, nlme: Linear and Nonlinear Mixed Effects Models, 2010; the R Development Core Team, R: A Language and Environment for Statistical Computing, 2010). Repellent values were calculated from counted landings on treatments versus the overall landings on pooled controls.
To test the behavior of female mosquitoes to a candidate compound identified in Example 5, behavioral assays were made using the identified compounds. The repellent assay was performed as described in Example 3, except that candidate compounds were dissolved in ethanol and tested initially at doses between 1.0 and 5.0 μg/cm^2 (about 5-31.5 nmole/cm^2) and, whenever necessary, at lower and/or higher doses as well. Besides the compounds identified in Example 5, compounds related to these were also tested including ethyl-cinnamate and butyl-cinnamate (Table 4).
To test the behavior of female mosquitoes to various combinations of candidate compounds identified in Example 6, repellence assays were made as in Example 3. These repellent assays were made to compare the effectiveness of the strongest repellent compounds identified in Example 6, including, without limitation, carvacrol, ethyl cinnamate, butyl cinnamate, and cumin alcohol with that of DEET.
The doses tested were 2, 4, 6 10 and 20 nmol/cm^2 for the single compounds. The binary 50:50 mixtures were tested at 2, 6, 10 and 20 nmol/cm^2, with each compound making up half the amount tested, so that, for example, the 2 nmol/cm^2 concentration in column A+B represents 1 nmol/cm^2 of A and 1 nmol/cm^2 of B in a binary mixture. DEET was also tested at 25 nmol (top response) and carvacrol was tested at the additional dose of 2.5 nmol (second from left within its column). As an indication, DEET at 20 nmol/cm^2=3.8 μg/cm^2. Mosquitoes were activated using a puff of CO2 from a gas tank upon introduction of the warm body into the test cage containing 50±5 A. gambiae females and mosquito landings were counted for 2 minutes. Each treatment (dose) was tested using five test cages, i.e. on a total of 250 female A. gambiae. […]

[2] = 2 nmol (per cm^2, total for mixtures, 50:50)
[3] = 4 nmol (per cm^2, total for mixtures, 50:50)
[4] = 6 nmol (per cm^2, total for mixtures, 50:50)
[5] = 10 nmol (per cm^2, total for mixtures, 50:50)
[6] = 20 nmol (per cm^2, total for mixtures, 50:50)
[7] = Anopheles gambiae, 2 min, read-out: Median Repellency (%)

SMILES	mosquito counts on the inside walls of the huts (in words) (Culex spp.)	mosquito counts on the inside walls of the huts (in words) (Anopheles gambiae s.l.)	Median repellence % [1, 2] [%]	Median repellence % [1, 3] [%]	Median repellence % [1, 4] [%]	Median repellence % [1, 5] [%]	Median repellence % [1, 6] [%]	Median repellence % ([1]; 25 nmol (per cm^2)) [%]	median repellency (%) at 20 nmol/cm2 ([1]; Anopheles gambiae, 2 min, 20 nmole per cm^2, read-out: Median Repellency (%)) [%]	median repellency (%) at 25 nmol/cm2 [1, 7] [%]	repellent activity in the warm body assay (in words) [1]	repellent activity (in words) ([1]; total concentration 2 nmole/cm^2)	spatial repellent effect, induced exophily (in words) (Culex spp.; per night)	spatial repellent effect, induced exophily (in words) (Anopheles gambiae s.l.; per night)	median repellency (%) at 20 nmol/cm2 [1, 7] [%]
CCN(CC)C(=O)c1cccc(C)c1 [DEET, N,N-diethyl-3-methylbenzamide, reference compound]	reduced mosquito counts on the inside walls	reduced mosquito counts on the inside walls	2	41	80	96	98	100	98.5						
Cc1ccc(C(C)C)cc1O [carvacrol, 5-isopropyl-2-methylphenol]	reduced mosquito counts on the inside walls	reduced mosquito counts on the inside walls	13	55	40	59		93		93.3	activity comparable to DEET	retained repellent activity			
CC(C)c1ccc(CO)cc1 [cumin alcohol]			−4	38	46	53	93				activity comparable to DEET		significantly lower than that of DEET	significantly lower than that of DEET	92.3

— patent US10390536B2, “Methods, compounds and compositions for repelling insects and/or arachnids” (National Center for Scientific Research “Demokritos”, priority 2013, dated 2019)
